Data on 1 substance can be found in patent US20060281791A1, “Methods of increasing proliferation of adult mammalian cardiomyocytes through p38 map kinase inhibition” (CHILDREN'S MEDICAL CENTER CORPORATION, priority 2005, published 2006).

Experiment [1] concerns myocardial infarction in adult rats. Description: Scar volume (trichrome stain) after myocardial infarction. In kind it is in vivo, rat. As for the experimental part:
(§1) To determine whether p38 inhibition/FGF1 stimulation can induce cardiomyocyte proliferation in vivo and whether it has a positive effect on cardiac function after cardiac injury we created myocardial infarctions (MI) in adult rats (250 g) by coronary artery ligation. The p38 inhibitor SB203580 HCl or its vehicle, saline, were injected intraperitoneal every three days for the first month of the study. FGF1 or its carrier BSA was injected mixed with self-assembling peptides once into the infarct border zone immediately after coronary artery ligation. We injecting a total of 80 μl of 400 ng/ml FGF1, given at 3 different injection sites, into 400 mg of infarcted myocardium estimated to deliver a FGF 1 concentration to the cardiomyocytes of approximately 50 to 100 ng/ml. Animals were analyzed 24 hours, 2 weeks, and 3 month after surgery. […]
To determine if p38 inhibition and FGF1 stimulation have an effect on infarct size we determined scar volume using trichrome stain. […]
Scar formation was determined as fibrotic area/(fibrotic+non-fibrotic area) based on all sections. The thinning index is a ratio of the amount of wall thinning in the infarct normalized to the thickness of the septum and is calculated by dividing the minimal infarct wall thickness with maximal septal wall thickness (2 weeks: section 1 to 4, 3 month: section 1 to 6 from base).

For the next experiment, the system named is adult cardiomyocytes. Description: Ki67 staining of adult cardiomyocytes. It is filed as cell-based, rat. The following applies: 12 days of stimulation. The method, then:
Animal experiments were performed in accordance with guidelines of Children's Hospital, Boston and UCLA. Ventricular cardiomyocytes from fetal (E19), 2-day-old (P2) and adult (250-350 g) Wistar rats (Charles River) were isolated as described with minor modifications (Engel et al. 1999; Engel et al. 2003). After digestion of fetal or neonatal hearts (0.14 mg/ml collagenase II (Invitrogen), 0.55 mg/ml pancreatin (Sigma)) cells were cultured in DMEM/F12 (GIBCO) containing 3 mM Na-pyruvate, 0.2% BSA, 0.1 mM ascorbic acid (Sigma), 0.5% Insulin-Transferrin-Selenium (100×), penicillin (100 U/ml), streptomycin (100 μg/ml), and 2 mM L-glutamine (GIBCO). […]
Staining was performed as described (Supplemental Table S3) (Engel et al. 1999; Engel et al. 2003). Immune complexes were detected with ALEXA 350, ALEXA 488 or ALEXA 594-conjugated secondary antibodies (1:200, Molecular Probes). […]
Eighteen to 40 hearts of 3 different litters were used for quantitative analyses of maximal areas. For immunofluorescence analyses 1,500 fetal or neonatal cardiomyocytes were counted. For adult cardiomyocyte analyses in vitro the following number of cells were counted: 500-2,000 for BrdU or Ki67, 9,000-25,000 for H3P, and 12,000-45,000 for aurora B. For in vivo MKK3bE and p38α knockout experiments 2 different litters were used. We counted 1,500-2,000 cells in each apex, left and right ventricle per heart. […]

The test system of experiment [2] is myocardial infarction in adult rats. As to the kind of experiment: Vessel density in the scar area after myocardial infarction. The following applies: rats after MI. In kind it is in vivo, rat. As for the experimental part:
as §1
One possible explanation is the angiogenic effect of FGF1. To determine the effect of our treatments on vascularization we determined the vessel density in the scar area. […]
Hearts were embedded in tissue-freezing medium (Fisher) without fixation, frozen in 2-methylbutane (cooled in liquid nitrogen), stored at −80° C., and finally sectioned (20 μm; Leica 3050S). […] Immune complexes were detected with ALEXA 488-, or ALEXA 594-conjugated secondary antibodies (1:400; Molecular Probes). […]

Consider FGF1: growth factor FGF1 (R&D Systems), for which the “scar size (scar volume)” value in experiment [1] (2 weeks) and in experiment [1] (3 month) was “significantly reduced” each time. In the experiment with adult cardiomyocytes, this substance displayed a Ki67-positive adult cardiomyocytes of 1.7±0.5%. Besides, the “vessel density in the scar area” value in experiment [2] is given as “increases significantly”.
